Experimental data: PMC6272662, “Trypanocidal Activity of Long Chain Diamines and Aminoalcohols” (Molecules, 2015)
Where two headings read alike, the source gives them in different places.

Key:
J774.2 macrophages = experiment: in vitro; conditions: for CC50: read-out: Macrophages LC50, J774.2 macrophages, 72 h, mean ± SEM; for times less toxic than NFX: macrophages LC50 relative to NFX
Method: (§1) The mouse cell lines J774.2 macrophages and NCTC clone 929 fibroblasts were used and cultured in plastic culture flasks. J774.2 and NCTC-929 cells were grown using DMEM and BME without phenol-red, respectively. Both media were supplemented with 10% heat inactivated fetal calf serum, 2 mM glutamine, 100 U/mL penicillin and 100 μg/mL streptomycin. Cell cultures were maintained at 37 °C in a humidified atmosphere containing 5% CO2 and subpassaged once a week. Cells in the pre-confluence phase were harvested with an EDTA-trypsin solution for the experiments.
(§2) Unspecific cytotoxicity was evaluated over phagocytic macrophages J774.2 cell line. To study cytotoxicity on J774.2 cells, 200 μL of a suspension of 2 × 10^5 macrophages/mL were added to 96 well flat-bottom microplates (Sigma). Cells were allowed to attach for 24 h at 37 °C and then exposed to the compounds for 72 h at the same concentrations as used for drug screening. […] Each concentration was assayed by triplicate, in independent experiments. Cytotoxicity was assessed by the Trypan Blue and XTT techniques and LC50 was calculated as described above.

[1] = test system: Trypanosoma cruzi amastigotes CL-B5 clone; experiment: Amastigote susceptibility assay, CL-B5 clone in NCTC-929 fibroblasts (CPRG); format: cell-based; conditions: for Amastigotes CL-B5 Clone SI: NCTC-929 cytotoxicity / amastigote IC50; for IC50: intracellular amastigotes in NCTC-929 fibroblasts, 7 days, mean ± SEM
Method: For the anti-amastigote assays, axenic cultures of epimastigotes reaching their stationary phase of growth (14 day-old cultures) were used to infect non-confluent monolayers of NCTC-929 fibroblasts to obtain tissue culture derived trypomastigotes (TCT). After 24 h at 33 °C in a humidified 5% CO2 atmosphere, the infected cultures were washed with phosphate buffer saline (PBS) to removed non-penetrated epimastigotes. TCT were harvested from the supernatant of the cultures after one week of incubation in these conditions of temperature and humidity.
For this assay, 120 μL of BME containing 10,000 NCTC-929 fibroblasts/well were seeded in 48-well plates (Costar) and after their attachment, infected with TCT obtained as above in a 1:6 cell-parasite ratio. The plates were incubated at 33 °C and 5% CO2 overnight and after the infection, experimental wells were washed with PBS to eliminate non-penetrated TCT. […] Then, 50 μL of a CPRG solution in 3% Triton X-100 (pH 7.4) were added to each well in a final concentration of 400 μM and the plates incubated 3 h at 37 °C. Finally, anti-amastigote activity was estimated by reading absorbance at 595 nm in a plate reader (Infinite 200, Tecan) and calculated as in Fonseca-Berzal et al.. IC50 and NI indexes were calculated as above.

NCTC-929 fibroblasts = experiment: in vitro; format: cell-based; conditions: NCTC-929 fibroblasts, 48 h, resazurin, mean ± SEM; read-out: Cytotoxicity NCTC-929 LC50
Method: (§3) NCTC-929 cells were placed in triplicate in 96-well microtitre plates at 15 × 10^3 cells per well in 100 µL of MEM supplemented with FBS and antibiotics. The cells were grown overnight at 37 °C in 5% CO2. Thereafter, the medium was removed and the compounds were added in 200 µL of medium and plates were incubated 48 h at 37 °C in 5% CO2. After incubation, 20 µL of 2 mM resazurin (Sigma) solution was added to each well. The plates were incubated for 3 h and metabolic activity was measured by fluorimetric readings taken in a plate fluorometer (Infinite 200, TECAN, Mannedorf, Switzerland) at λexcitation 535 nm and λemission 590 nm, according to the Alamar blue® Assay.

[2] = test system: Trypanosoma cruzi epimastigotes strain JEM (MHOM/CO/05/JEM); experiment: Epimastigote susceptibility assay, JEM strain (Trypan Blue and XTT); format: cell-based; conditions: for JEM Strain SI (Selectivity Index: LC50-macrophages/IC50-epimastigotes): JEM strain epimastigotes vs J774.2 macrophages; for JEM Strain PNFX (potency relative to NFX = IC50-NFX/IC50-compound; also called NI) / IC50: epimastigotes, JEM strain; for IC50: 72 h at 28 °C, 0.1-70.0 µM, mean ± SEM
Method: (§4) For in vitro studies, the strains MHOM/CO/04/MG (MG), MHOM/CO/05/JEM (JEM) and CL Brener strain clone B5 (CL-B5) were used. The MG and JEM strains correspond to Group I and Haplotype Ia isolates from two Colombian patients in the acute phase, and CL-B5 is a strain stably transfected with Escherichia coli β-galactosidase gene (lacZ). Epimastigotes were grown in plastic culture flasks at 28 °C, in axenic liver-infusion tryptose (LIT) growth medium, supplemented with 10% heat inactivated (30 min at 56 °C) foetal calf serum (FCS; Sigma), […] hemin (Sigma), and 10 µg/mL gentamycin (Sigma) and harvested in the exponential phase for conducting the experiments. Cultures were continuously maintained in logarithmic growth by weekly passages.
(§5) Three different strains of T. cruzi were used for the primary screening on epimastigote forms. For strains MG and JEM, the screening assay was performed with approximately 1 × 10^5 epimastigotes in logaritmic growth phase in 200 μL of supplemented LIT medium per well in 96-well flat bottoned plates (Costar, Corning, Cornig, NY, USA). […] The plates were incubated for 72 h at 28 °C and all experimental conditions were evaluated in triplicate in three independent experiments. The epimastigote growth inhibition was microscopically determined by the Trypan Blue dye exclusion assay and XTT (2,3-bis-(2-methoxy-4-nitro-5-sulfophenyl)-5-[(phenylamino)carbonyl]-2H-tetrazolium hydroxide). Regarding the first method, an aliquot from every culture was suspended in 0.4% trypan blue solution for 5 min and cell viability was determined under microscope by counting live parasites in each condition in a Neubauer chamber. Anti-epimastigote activity percentage was calculated as (Parasite counts in control wells-Parasite counts in experimental wells) × 100/Parasite counts in control wells. Trypanocidal activity over both strains was also measured adding 50 μL of XTT solution per well to obtain a final concentration of 0.3 mg/mL. The plate was re-incubated 24 h in the dark at 37 °C and orange formazan solution formed, was spectrophotometrically quantified at 450 nm with a 630 nm reference filter, using an Ear400FT ELISA reader.
(§6) Furthermore the Selectivity Index (SI = mammalian cell LC50/epimastigote IC50) for each compound was calculated to compare the antiprotozoal activity with its respective mammalian cell cytotoxicity.

[3] = test system: Trypanosoma cruzi epimastigotes CL Brener strain clone B5 (CL-B5); experiment: Epimastigote susceptibility assay, CL-B5 clone (β-galactosidase activity, CPRG); format: cell-based; conditions: for Epimastigotes CL-B5 Clone SI: NCTC-929 cytotoxicity / epimastigote IC50; for Epimastigotes CL-B5 Clone PNFX (nifurtimox IC50/compound IC50) / IC50: epimastigotes, CL-B5 clone; for IC50: 72 h at 28 °C, β-galactosidase readout, mean ± SEM
Method: as §4
Trypanocidal activity against CL-B5 strain was also assessed by measuring β-galactosidase activity. Briefly, log-phase epimastigotes were seeded in 96-well microplates at a density of 2.5 × 10^5 parasites/mL in a final volume of 200 μL/well and incubated within the compounds for 72 h at 28 °C. Afterwards, 50 μL of the β-galactosidase substrate chlorophenol red β-D-galactopyranoside (CPRG, Roche) in 0.9% Triton X-100 (Panreac) solution were added to each well (200 μM, pH 7.4) and the plates incubated at 37 °C for 3 h. Anti-epimastigote activity was estimated by reading absorbance at 595 nm. Each concentration was assayed by triplicate, in three independent experiments. […] In all spectrophotometric assays, anti-epimastigote activity percentages were calculated as (OD control wells − OD experimental wells) ×100/OD control wells.
as §6

[4] = test system: Trypanosoma cruzi epimastigotes strain MG (MHOM/CO/04/MG); experiment: Epimastigote susceptibility assay, MG strain (Trypan Blue and XTT); format: cell-based; conditions: for MG Strain SI (Selectivity Index: LC50-macrophages/IC50-epimastigotes): MG strain epimastigotes vs J774.2 macrophages; for MG Strain PNFX (potency relative to NFX = IC50-NFX/IC50-compound; also called NI) / IC50: epimastigotes, MG strain; for IC50: 72 h at 28 °C, 0.1-70.0 µM, mean ± SEM
Method: as §4, §5, §6

Chagas disease = test system: Chagas disease; set-up: method as in PMID 22614520, PMID 22760123, PMID 22686518, PMID 19967227; conditions: ref [6],[7],[8],[9], cited from earlier work
in vitro [5] = conditions: mouse
Method: as §1, §2

in vitro [6] = format: cell-based; conditions: mouse
Method: as §3

[7] = chronic cases of Chagas disease
[8] = Trypanosoma cruzi, NCTC929, 168 h

| Compound | Amastigotes CL-B5 Clone SI [1] | Amastigotes CL-B5 Clone PNFX (nifurtimox IC50/compound IC50) [1] | JEM Strain SI (Selectivity Index: LC50-macrophages/IC50-epimastigotes) [2] | JEM Strain PNFX (potency relative to NFX = IC50-NFX/IC50-compound; also called NI) [2] | Epimastigotes CL-B5 Clone SI [3] | Epimastigotes CL-B5 Clone PNFX (nifurtimox IC50/compound IC50) [3] | MG Strain SI (Selectivity Index: LC50-macrophages/IC50-epimastigotes) [4] | MG Strain PNFX (potency relative to NFX = IC50-NFX/IC50-compound; also called NI) [4] | CC50 at 72 h (in vitro [5]) | IC50 [1, 8] | CC50 at 48 h (in vitro [6]) | IC50 ([2]; Trypanosoma cruzi, 72 h) | IC50 ([3]; Trypanosoma cruzi) | IC50 ([4]; Trypanosoma cruzi, 72 h) | also measured |
| --- | --- | --- | --- | --- | --- | --- | --- | --- | --- | --- | --- | --- | --- | --- | --- |
| 2-(tert-Butoxycarbonyl)-dodecan-1,2-diamine [Compound 14] | 9.9 | 0.2 | 3.3 | 1.0 | 11.8 | 4.2 | 4.4 | 2.0 |  |  |  |  |  |  | CC50 (J774.2 macrophages): 47.1 ± 0.35 µM; IC50 [1]: 3000 ± 210 nM; CC50 (NCTC-929 fibroblasts): 29.6 ± 0.01 µM; IC50 [2]: 14.5 ± 0.05 µM; IC50 [3]: 2.5 ± 0.03 µM; IC50 [4]: 10.8 µM |
| 2-tert-Butoxycarbonyl-hexadecan-1,2-diamine [Compound 15] | 9.8 | 0.2 | 2.4 | 0.7 | 10.6 | 4.3 | 4.0 | 1.8 |  |  |  |  |  |  | CC50 (J774.2 macrophages): 48.1 ± 0.15 µM; IC50 [1]: 2600 ± 230 nM; CC50 (NCTC-929 fibroblasts): 25.6 ± 0.06 µM; IC50 [2]: 20.4 ± 0.3 µM; IC50 [3]: 2.4 ± 0.01 µM; IC50 [4]: 12 ± 2.15 µM |
| O=C(Cn1ccnc1[N+](=O)[O-])NCc1ccccc1 [Bz, benznidazole] |  |  |  |  |  |  |  |  |  |  |  |  |  |  | average cure rate (Chagas disease; acute cases of Chagas disease): ~80%; mild to moderate dermatitis (Chagas disease; adults): up to 30%; average cure rate (Chagas disease; [7]): less than 20% |
| CCCCCCCCCCCCCCC(N)CO (stereo not drawn) [Compound 2, 2-Aminohexadecanol] | 14.0 | 0.3 | 26 | 4.9 | 7.2 | 3.0 | 3.3 | 0.9 | 77.8 ± 0.35 µM | 1800 ± 120 nM | 25.2 ± 0.12 µM | 3 ± 1.5 µM | 3.5 ± 0.01 µM | 23.7 ± 3.15 µM |  |
| CCCCCCCCCCCCCCC(CO)NCC (stereo not drawn) [Compound 5, 2-(Ethylamino)hexadecanol] | 54 | 1.0 | 2.3 | 0.8 | 9.8 | 3.1 | 2.0 | 1.0 | 43.4 ± 0.5 µM | 600 ± 250 nM | 32.4 ± 0.02 µM | 19.3 ± 1.35 µM | 3.3 ± 0.1 µM | 21.6 ± 2.95 µM |  |
| CCCCCCCCCCCCCCC(CO)NCCCC (stereo not drawn) [Compound 6, 2-(Butylamino)hexadecanol] | 47.8 | 0.3 |  | 5.3 | 22.7 | 2.5 |  | 6.6 | 63.9 ± 3.5 µM | 2000 ± 270 nM | 95.6 ± 1.19 µM | 2.8 ± 0.75 µM | 4.2 ± 0.52 µM | 3.2 ± 0.2 µM | times less toxic than NFX (J774.2 macrophages): 1.3 |
| CCCCCCCCCCC(CO)N(CCCC)CCCC (stereo not drawn) [Compound 9] |  |  | 1.3 | 0.3 |  |  | 1.6 | 0.5 | 63.7 ± 0.73 µM |  |  | 50.5 ± 0.7 µM |  | 39.2 ± 0.2 µM | times less toxic than NFX (J774.2 macrophages): 1.3 |
| CCCCCCCCCCCCCCCCC(N)CN(CC)CC (stereo not drawn) [Compound 21] |  |  |  |  |  |  | 0.2 | 0.5 | 9.3 ± 0.5 µM |  |  | > 70 µM |  | 42.2 ± 1.4 µM |  |
| CC1CS(=O)(=O)CCN1/N=C/c1ccc([N+](=O)[O-])o1 (stereo not drawn) [NFX, nifurtimox, reference compound] |  |  |  |  |  |  |  |  |  | 600 ± 10 nM |  | 14.8 ± 1.24 µM | 10.4 ± 1.3 µM | 21.2 ± 1.16 µM | average cure rate (Chagas disease; [7]): less than 20% |
